# Source: ChEMBL document CHEMBL3044672, “N9- and N7-(Chloromethyl Phenymethyl)Chloropurine Derivatives from , '-Dichloroxylenes: Synthesis and Anticancer Activity” (2005)
# Experiments:
# Format in all cases: functional
# [1] = tested on: A498; test: Cytotoxicity against Homo sapiens (human) A498 cells after 48 hr by sulforhodamine B assay; settings: A498, 48 h
# [2] = tested on: ACHN; test: Cytotoxicity against Homo sapiens (human) ACHN cells after 48 hr by sulforhodamine B assay
# [3] = tested on: 786-0; test: Cytotoxicity against Homo sapiens (human) 786-0 cells after 48 hr by sulforhodamine B assay; settings: 786-0, 48 h
# [4] = tested on: OVCAR-8; test: Cytotoxicity against Homo sapiens (human) OVCAR8 cells after 48 hr by sulforhodamine B assay; settings: OVCAR-8, 48 h
# [5] = tested on: UACC-62; test: Cytotoxicity against Homo sapiens (human) UACC62 cells after 48 hr by sulforhodamine B assay; settings: UACC-62, 48 h
# [6] = tested on: UACC-257; test: Cytotoxicity against Homo sapiens (human) UACC257 cells after 48 hr by sulforhodamine B assay; settings: UACC-257, 48 h
# [7] = tested on: SK-MEL-28; test: Cytotoxicity against Homo sapiens (human) SK-MEL-28 cells after 48 hr by sulforhodamine B assay; settings: SK-MEL-28, 48 h
# [8] = tested on: LOX IMVI; test: Cytotoxicity against Homo sapiens (human) LOXIMVI cells after 48 hr by sulforhodamine B assay
# [9] = tested on: M14; test: Cytotoxicity against Homo sapiens (human) M14 cells after 48 hr by sulforhodamine B assay; settings: M14, 48 h
# [10] = tested on: U-251; test: Cytotoxicity against Homo sapiens (human) U251 cells after 48 hr by sulforhodamine B assay; settings: U-251, 48 h
# [11] = tested on: SNB-19; test: Cytotoxicity against Homo sapiens (human) SNB19 cells after 48 hr by sulforhodamine B assay; settings: SNB-19, 48 h
# [12] = tested on: SF-539; test: Cytotoxicity against Homo sapiens (human) SF539 cells after 48 hr by sulforhodamine B assay; settings: SF-539, 48 h
# [13] = tested on: BT-549; test: Cytotoxicity against Homo sapiens (human) BT549 cells after 48 hr by sulforhodamine B assay; settings: BT-549, 48 h
# [14] = Cytotoxicity against Homo sapiens (human) NCI-ADR-RES cells after 48 hr by sulforhodamine B assay
# [15] = tested on: UO-31; test: Cytotoxicity against Homo sapiens (human) UO31 cells after 48 hr by sulforhodamine B assay; settings: UO-31, 48 h
# [16] = tested on: SN12C; test: Cytotoxicity against Homo sapiens (human) SN12C cells after 48 hr by sulforhodamine B assay
# [17] = tested on: CAKI-1; test: Cytotoxicity against Homo sapiens (human) Caki1 cells after 48 hr by sulforhodamine B assay; settings: CAKI-1, 48 h
# [18] = tested on: SF-268; test: Cytotoxicity against Homo sapiens (human) SF268 cells after 48 hr by sulforhodamine B assay; settings: SF-268, 48 h
# [19] = tested on: HCT-15; test: Cytotoxicity against Homo sapiens (human) HCT15 cells after 48 hr by sulforhodamine B assay; settings: HCT-15, 48 h
# [20] = tested on: NCI-H522; test: Cytotoxicity against Homo sapiens (human) NCI-H522 cells after 48 hr by sulforhodamine B assay; settings: NCI-H522, 48 h
# [21] = tested on: NCI-H23; test: Cytotoxicity against Homo sapiens (human) NCI-H23 cells after 48 hr by sulforhodamine B assay; settings: NCI-H23, 48 h
# [22] = tested on: NCI-H226; test: Cytotoxicity against Homo sapiens (human) NCI-H226 cells after 48 hr by sulforhodamine B assay; settings: NCI-H226, 48 h
# [23] = tested on: HOP-92; test: Cytotoxicity against Homo sapiens (human) HOP92 cells after 48 hr by sulforhodamine B assay; settings: HOP-92, 48 h
# [24] = tested on: A549; test: Cytotoxicity against Homo sapiens (human) A549 cells after 48 hr by sulforhodamine B assay; settings: A549, 48 h
# [25] = tested on: K562; test: Cytotoxicity against Homo sapiens (human) K562 cells after 48 hr by sulforhodamine B assay; settings: K562, 48 h
# [26] = tested on: CCRF-CEM; test: Cytotoxicity against Homo sapiens (human) CCRF-CEM cells after 48 hr by sulforhodamine B assay
# [27] = tested on: MCF7; test: Cytotoxicity against Homo sapiens (human) MCF7 cells assessed as cell growth at 10^-4 M after 48 hr by Alamar blue assay; settings: MCF7, 48 h, read-out: Activity
# [28] = tested on: NCI-H460; test: Cytotoxicity against Homo sapiens (human) NCI-H460 cells assessed as cell growth at 10^-4 M after 48 hr by Alamar blue assay; settings: NCI-H460, 48 h, read-out: Activity
# [29] = read-out: LC50 (the source's name)
compound,measurement,setting,value
Nc1nc(Cl)c2ncn(Cc3cccc(CCl)c3)c2n1,GI50,[1],25.1 µM
same,"LC50 (lethal concentration, 50% cell kill)",[1],> 100 µM
same,TGI,[1],51.3 µM
same,GI50,[2],2.88 µM
same,TGI,[2],8.71 µM
same,CC50,[2]; [29],29.5 µM
same,GI50,[3],6.6 µM
same,LC50,[3],91.2 µM
same,TGI,[3],26.3 µM
same,GI50,[4],2.29 µM
same,LC50 (concentration killing 50% of cells),[4],53.7 µM
same,TGI,[4],6.76 µM
same,GI50,[5],2.09 µM
same,LC50 (concentration causing 50% net cell kill),[5],13.5 µM
same,TGI,[5],4.78 µM
same,GI50,[6],5.75 µM
same,LC50 (concentration killing 50% of cells),[6],49 µM
same,TGI,[6],19.5 µM
same,GI50,[7],4.46 µM
same,LC50 (concentration killing 50% of cells),[7],74.1 µM
same,TGI,[7],19.1 µM
same,GI50,[8],3.38 µM
same,LC50,[8],81.3 µM
same,TGI,[8],13.2 µM
same,GI50,[9],3.63 µM
same,LC50,[9],41.7 µM
same,TGI,[9],11.7 µM
same,GI50,[10],1.82 µM
same,LC50 (concentration killing 50% of cells),[10],9.33 µM
same,TGI,[10],4.07 µM
same,GI50,[11],3.16 µM
same,LC50,[11],46.8 µM
same,TGI,[11],15.1 µM
same,GI50,[12],4.67 µM
same,LC50 (concentration killing 50% of cells),[12],69.2 µM
same,TGI,[12],20.4 µM
same,GI50,[13],4.07 µM
same,LC50 (50% lethal concentration),[13],58.9 µM
same,TGI,[13],17.4 µM
same,GI50,[14],4.89 µM
same,LC50 (concentration killing 50% of cells),[14],75.9 µM
same,TGI,[14],19.9 µM
same,GI50,[15],13.5 µM
same,LC50 (concentration causing 50% net cell kill),[15],77.6 µM
same,TGI,[15],32.4 µM
same,GI50,[16],4.46 µM
same,LC50 (50% lethal concentration),[16],39.8 µM
same,TGI,[16],15.5 µM
same,GI50,[17],0.24 µM
same,TGI,[17],1.51 µM
same,CC50,[17]; [29],15.8 µM
same,GI50,[18],3.02 µM
same,TGI,[18],10.2 µM
same,CC50,[18]; [29],67.6 µM
same,GI50,[19],2.51 µM
same,TGI,[19],6.76 µM
same,CC50,[19]; [29],33.1 µM
same,GI50,[20],3.31 µM
same,TGI,[20],13.5 µM
same,CC50,[20]; [29],81.3 µM
same,GI50,[21],2.04 µM
same,TGI,[21],5.01 µM
same,CC50,[21]; [29],26.9 µM
same,GI50,[22],10.7 µM
same,TGI,[22],42.6 µM
same,CC50,[22]; [29],> 100 µM
same,GI50,[23],0.63 µM
same,TGI,[23],38 µM
same,CC50,[23]; [29],> 100 µM
same,GI50,[24],12.3 µM
same,TGI,[24],27.5 µM
same,CC50,[24]; [29],63.1 µM
same,GI50,[25],4.36 µM
same,TGI,[25],> 100 µM
same,CC50,[25]; [29],> 100 µM
same,GI50,[26],3.02 µM
same,TGI,[26],> 100 µM
same,CC50,[26]; [29],> 100 µM
same,growth at 100 µM,[27],0%
same,growth at 100 µM,[28],0%
